According to US6599522B2, “Triglyceride reducing agent” (priority 2000, dated 2003):
Values joined by “and” are separate entries in the source; they are usually repeats but may differ in a detail not shown here. Identical values can stand only once. Like-named read-outs stand apart in the source and are kept apart here. Marks after values point to notes of the source that are not given here.

How the values were obtained:
[1] = man; cited from earlier work
hyperlipidemic patients = experiment: Clinical study: effect of the hypolipidemic agent on elevated triglyceride levels in blood; assay type: in vivo, human
Description: Effect (in vivo) of the Hypolipidemic Agent on Elevated Triglyceride Levels in Blood-Clinical Study Patients attending the Endocrinology and Metabolism outpatient department of […] Medical College Hospital were included in the study. Patients with baseline serum total cholesterol above 200 mg/dl and/or serum triglycerides above 200 mg/dl after 6-12 weeks of low fat diet, exercise and weight reduction program, were included in the study. The compliance of the subjects for diet, weight and exercise schedules were monitored throughout the study. The number of patients recruited for the study were 37, including a child. There were […] in the age group of 30 to 62 years. Of the 37 patients, 23 patients were diabetic (type two diabetes) and 16 patients had essential hypertension, and two women and nine men were obese, the others being of normal weight. Two men and one person dropped out of the study, due to unknown causes. Of the original patients, 34 completed the study as per the protocol. In the initial visit, patient's height in centimeters, and weight in kilograms were recorded. After noting detailed history, physical examinations were performed on each patient. Informed consent was taken from all patients and, in the case of minors, from their parents. Blood samples were drawn for routine hematology, fasting and post prandial plasma glucose, blood urea, serum creatinine, liver function test and lipid profile. At each visit, the patient's weight and diet and exercise compliance was checked and blood samples for hematology and lipid profile were drawn. The patients were given 20 mg of Vanillin in gelatin capsule once a day before the main meal. At each visit, pill count was done to check the compliance of the drug intake. The data were recorded in the case record form and computer by authorized persons. The data were analyzed statistically.

rabbits = conditions: rabbit, in vivo; cited from earlier work
hyperlipidemic rats = experiment: Dose response spectrum of the hypolipidemic agent, animal assay on hyperlipidemic diet; assay type: in vivo, Wistar male rats; design: Serum triglycerides, TOTAL / Serum triglycerides, LDL-VLDL / Serum triglycerides, HDL: unit not given here; conditions: six weeks; for Hypocholesterolemic effect, lowering: mainly LDL-VLDL fraction
Description: Dose Response Spectrum of the Hypolipidemic Agent—Animal Assay: The response in terms of the lowering of triglyceride component in the majority of the human cases were encouraging. This initiated a dose response test in young adult rats to determine a standard response curve. Such a curve would help in choosing the proper doses for further clinical trials and determine the adequacy and nature of the response. The tests were done on groups of young Wistar male rats, statistically distributed on the basis of body weight (125±5 g) into six groups, including a control group. […] The basal hyperlipidemic diet contained (g/100): casein 15, corn starch 40, cane sugar 10, hydrogenated fat 25, refined peanut oil 5, NRC vitamin mixture (choline free) 1, and salt mixture (Bernhardt-Tomarrelli modified) 4. Fat soluble vitamins at desired concentrations were added to the peanut oil. Vanillin was incorporated into the hyperlipidemic diet in replacement of starch at the desired levels. The duration of the test feeding period was six weeks. At the end of the experimental period, the rats were sacrificed and lipid analysis was done using standard procedures.

rats [2] = conditions: cited from earlier work
guinea pigs = conditions: guinea pig, in vivo; cited from earlier work
rats [3] = conditions: cited from earlier work; remark: listed apart in the source
[4] = 20 mg/day oral, throughout the study
[5] = mean of 10 patients, baseline mean 425.2, p < 0.0005 vs TG1, 20 mg/day

**Q.** With `COc1cc(C=O)ccc1O` [Vanillin, 4-hydroxy-3-methoxybenzaldehyde] as the molecule, how does the Metabolism and excretion [1] read?
**A.** converted to vanillic acid in the liver and is excreted in the urine

**Q.** What about the “Change in serum HDL level” value (hyperlipidemic patients; 20 mg/day) of the same molecule?
**A.** no significant change

**Q.** What about the “Adverse effects in patients” value (hyperlipidemic patients; [4]) of the same molecule?
**A.** No adverse effects

**Q.** What about the “Routine biochemistry, hematology and liver function tests” value (hyperlipidemic patients; [4]) of the same molecule?
**A.** did not show any significant change

**Q.** And the “DELTA = (TG1 − TG3)” value (hyperlipidemic patients; individual patient, before treatment minus 6 weeks after treatment, 20 mg/day)?
**A.** 243 mg/dL and 199 mg/dL and 218 mg/dL and 120 mg/dL and 168 mg/dL and 236 mg/dL and 133 mg/dL and 250 mg/dL and 158 mg/dL and 224 mg/dL

**Q.** And the “(DELTA/TG1) ×100” value (hyperlipidemic patients; individual patient, reduction of serum triglyceride at 6 weeks, 20 mg/day)?
**A.** 41.68% and 52.15% and 53.96% and 42.25% and 30.65% and 49.58% and 43.18% and 58.14% and 47.02% and 44.44%

**Q.** What about the “DELTA = (TG1 − TG3), mean” value (hyperlipidemic patients; mean of 10 patients, 20 mg/day) of the same molecule?
**A.** 194.9 mg/dL

**Q.** And the “(DELTA/TG1) ×100, mean” value (hyperlipidemic patients; mean of 10 patients, 6 weeks, 20 mg/day)?
**A.** 46.34%

**Q.** And the “TG2: fasting serum triglyceride level 3 weeks after treatment, mean” value (hyperlipidemic patients; [5])?
**A.** 306.0** mg/dl

**Q.** And the “TG3: fasting serum triglyceride level 6 weeks after treatment, mean” value (hyperlipidemic patients; [5])?
**A.** 230.3 mg/dL

**Q.** What about the “Change from baseline total cholesterol, mean” value (hyperlipidemic patients; mean, 20 mg/day) of the same molecule?
**A.** 74.5 mg/dL

**Q.** And the “Reduction of serum triglyceride” value (hyperlipidemic patients; patient, about six weeks, 20 mg/day)?
**A.** up to 75%

**Q.** And the “Serum triglyceride after treatment” value (hyperlipidemic patients; patient, initial value 3078 mg/dl, about six weeks, 20 mg/day)?
**A.** 786 mg/dL

**Q.** What about the “Acute oral LD50” value (rabbits) of the same molecule?
**A.** 3000 mg/kg

**Q.** And the Liver total lipids (hyperlipidemic rats; 0.125% and 0.25% in diet)?
**A.** significantly higher

**Q.** And the “Triglycerides in the liver” value (hyperlipidemic rats; 0.125% and 0.25% in diet)?
**A.** higher accumulation

**Q.** What about the “Decrease in HDL cholesterol” value (hyperlipidemic rats; 0.125% in diet) of the same molecule?
**A.** 16%

**Q.** What about the “Hypocholesterolemic effect, lowering” value (hyperlipidemic rats; 0.125% in diet) of the same molecule?
**A.** 18%

**Q.** And the “Serum triglycerides, HDL” value (hyperlipidemic rats; 0.125% in hyperlipidemic diet)?
**A.** 69.3 ± 7.0

**Q.** And the “Serum triglycerides, LDL-VLDL” value (hyperlipidemic rats; 0.125% in hyperlipidemic diet)?
**A.** 128.3 ± 4.1

**Q.** What about the “Serum triglycerides, TOTAL” value (hyperlipidemic rats; 0.125% in hyperlipidemic diet) of the same molecule?
**A.** 197.6 ± 9.74

**Q.** And the “Hypocholesterolemic effect, lowering” value (hyperlipidemic rats; 0.25% in diet)?
**A.** 12%

**Q.** And the “Serum triglycerides, HDL” value (hyperlipidemic rats; 0.25% in hyperlipidemic diet)?
**A.** 74.3 ± 10.4

**Q.** What about the “Serum triglycerides, LDL-VLDL” value (hyperlipidemic rats; 0.25% in hyperlipidemic diet) of the same molecule?
**A.** 147.1 ± 6.5

**Q.** What about the “Serum triglycerides, TOTAL” value (hyperlipidemic rats; 0.25% in hyperlipidemic diet) of the same molecule?
**A.** 221.4 ± 16.5

**Q.** What about the “Decrease in serum phospholipids” value (hyperlipidemic rats; 0.5% in diet) of the same molecule?
**A.** 19%

**Q.** And the “Serum triglycerides, HDL” value (hyperlipidemic rats; 0.5% in hyperlipidemic diet)?
**A.** 29.8 ± 6.5

**Q.** What about the “Serum triglycerides, LDL-VLDL” value (hyperlipidemic rats; 0.5% in hyperlipidemic diet) of the same molecule?
**A.** 127.0 ± 4.3

**Q.** What about the “Serum triglycerides, TOTAL” value (hyperlipidemic rats; 0.5% in hyperlipidemic diet) of the same molecule?
**A.** 156.8 ± 10.4

**Q.** And the Adipose fat (hyperlipidemic rats; 1% and 5% levels in diet)?
**A.** lowered

**Q.** And the “Decrease in serum phospholipids” value (hyperlipidemic rats; 1.0% in diet)?
**A.** 14%

**Q.** And the “Serum triglycerides, HDL” value (hyperlipidemic rats; 1.0% in hyperlipidemic diet)?
**A.** 41.7 ± 5.5

**Q.** What about the “Serum triglycerides, LDL-VLDL” value (hyperlipidemic rats; 1.0% in hyperlipidemic diet) of the same molecule?
**A.** 104.8 ± 4.9

**Q.** And the “Serum triglycerides, TOTAL” value (hyperlipidemic rats; 1.0% in hyperlipidemic diet)?
**A.** 146.5 ± 9.33

**Q.** And the “Serum triglycerides, HDL” value (hyperlipidemic rats; 5.0% in hyperlipidemic diet)?
**A.** 38.6 ± 4.8

**Q.** What about the “Serum triglycerides, LDL-VLDL” value (hyperlipidemic rats; 5.0% in hyperlipidemic diet) of the same molecule?
**A.** 141.8 ± 10.3

**Q.** And the “Serum triglycerides, TOTAL” value (hyperlipidemic rats; 5.0% in hyperlipidemic diet)?
**A.** 180.4 ± 3.69

**Q.** What about the Liver weights (hyperlipidemic rats; any of the levels tested (0.125-5% in diet)) of the same molecule?
**A.** not affected

**Q.** What about the “Reduction in serum triglycerides” value (rats [2]; 0.15 mg % vanillin) of the same molecule?
**A.** 24%

**Q.** What about the “Acute oral LD50” value (guinea pigs) of the same molecule?
**A.** 1400 mg/kg

**Q.** And the “Body and organ weights, hematology, and histopathology, test versus control rats” value (rats [3]; 1.0% of diet 16 weeks, 0.1% 27 to 28 weeks, 2.0% and 5.0% one year, 0.5%, 1.0% and 2.0% two years)?
**A.** no significant differences

**Q.** And the Adverse effects (rats [3]; rats, 5% diet for 90 days (earlier study))?
**A.** growth depression and organ enlargement

**Q.** And the “Daily intake equal to the highest level without adverse effect” value (rats [3]; rats, 5% in diet)?
**A.** ~2500 mg/kg

**Q.** What about the “Highest level consumed without adverse effect” value (rats [3]; rats, level in diet) of the same molecule?
**A.** 5%

**Q.** What about the Adverse effects (rats [3]; rats, oral, once a day 20 mg/kg/d for 126 days) of the same molecule?
**A.** no adverse effects

**Q.** What about the Adverse effects (rats [3]; rats, oral, twice per week 300 mg/kg/dose for 14 weeks) of the same molecule?
**A.** no adverse effects

**Q.** And the “Highest no-adverse-effect intake relative to estimated per capita daily intake” value (rats [3]; versus a 60-kg person)?
**A.** ~14,000 times

**Q.** With `COc1cc(CNC(=O)CCCC/C=C/C(C)C)ccc1O` [capsaicin, reference compound] as the molecule, how does the “Reduction in serum triglycerides” value (rats [2]; 0.3 mg % capsaicin) read?
**A.** 13%
